Patent US10253041B2, “7-phenylethylamino-4H-pyrimido[4,5-d][1,3]oxazin-2-one compounds and their use as mutant IDH1 inhibitors” (Eli Lilly and Company, priority 2015, dated 2019)
Where two headings read alike, the source gives them in different places.

Key:
IDH2/R140Q = biological target: T1, IDH2/R140Q (Homo sapiens, UniProt P48735, R140Q); assay: Biochemical assay for IDH2 R140Q mutant enzyme (2HG by RapidFire MS); conditions: mean ± standard deviation of the mean; 90 minutes reaction
T1 construct: His-tag (N); made in house; host or cells: E. coli
T1 sequence (P48735 40-452 R140Q): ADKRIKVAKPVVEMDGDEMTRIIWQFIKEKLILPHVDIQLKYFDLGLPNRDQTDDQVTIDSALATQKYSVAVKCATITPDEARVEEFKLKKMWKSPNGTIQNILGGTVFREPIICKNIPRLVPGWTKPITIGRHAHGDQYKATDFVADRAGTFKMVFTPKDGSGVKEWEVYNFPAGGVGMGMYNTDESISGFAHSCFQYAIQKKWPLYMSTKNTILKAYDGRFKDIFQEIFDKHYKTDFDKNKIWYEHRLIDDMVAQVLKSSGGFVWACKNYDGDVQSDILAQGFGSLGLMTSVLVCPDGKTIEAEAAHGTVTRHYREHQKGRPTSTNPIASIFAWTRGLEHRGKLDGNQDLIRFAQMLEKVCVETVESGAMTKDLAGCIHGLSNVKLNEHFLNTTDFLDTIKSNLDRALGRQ
Experimental: IDH1-R132H, IDH1-R132C, IDH2-R172K and IDH2-R140Q mutant enzymes catalyze the conversion of αKG to 2HG. 2HG is analyzed using in-line solid phase extraction and mass spectrometry. This analysis is carried out in a RapidFire® instrument coupled to a 6460 triple quadrupole mass spectrometer (G6460A Agilent).
IDH1 mutant (R132H and R132C) and IDH2 mutant (R140Q and R172K) proteins containing N-terminal His-tag are expressed in E. coli and purified using nickel affinity chromatography. The enzyme assays are carried out in V-bottom 96 well polypropylene plates containing 100 mM Tris-HCl buffer, 1 mM DTT, 0.005% TRITON™ X-100, 120 mM NaCl. For IDH1 R132H, α-ketoglutarate, NADPH and MnCl2 are included at final concentrations of 300 μM, 2.5 μM and 300 μM respectively. For IDH1 R132C, α-ketoglutarate, NADPH and MnCl2 are included at final concentrations of 100 μM, 10 μM and 100 μM respectively. For IDH2 R172K, α-ketoglutarate, NADPH and MnCl2 are included at final concentrations of 150 μM, 10 μM and 150 μM respectively. For IDH2 R140Q, α-ketoglutarate, NADPH and MnCl2 are included at final concentrations of 3000 μM, 10 μM and 100 μM respectively. Final pH=7.0. Test compound dissolved in DMSO stock is diluted in the reaction mix at a final DMSO concentration of 4%. Compounds are tested in dose-response format. The assay is started by addition of enzyme. Enzymes are used at the following final concentrations: IDH1 R132H, 2 nM; IDH1 R132C, 0.5 nM; IDH2 R172K, 1.2 nM; IDH2 R140Q, 1.2 nM. After 90 minutes the reaction is quenched by adding ACN (50:50) containing 3-hydroxy-1,5-pentanedioic-2,2,3,4,4-d5 acid (5d5-3HG) as an internal standard for mass spectrometry analysis and quantitation of reaction product. 2-Hydroxyglutarate (2HG) in quenched samples is separated using strong anionic exchange column chromatography (Phenomenex Strata-X-A SecurityGuard) and analyzed by mass spectrometry in a 6460 triple quadrupole mass spectrometer (G6460A Agilent). The 2HG signal detected is transformed into an analyte concentration using a calibration curve generated using known 2HG concentrations. […] IC50 values are obtained from the individual % inhibition values at different compound concentrations using a 4-parameter equation. These calculations are carried out using Activity Base (IDBS) or Screener (Genedata) data analysis programs.

[1] = test system: IDH1/R132H in U87MG glioma cells; assay: U87MG/IDH1R132H cell assay (intracellular 2HG); format: cell-based; conditions: Homo sapiens, U-87 MG, 1 hour + 18 hours incubation, read-out: U87MG (IDH1/R132H 2-hydroxyglutarate IC50)
Experimental: To test the cellular inhibition of IDH1 mutant R132C, the fibrosarcoma cell line HT1080 (purchased from ATCC) is used. For testing cell-based inhibition of the R132H mutation, the U87MG glioma cell line (ATCC) was stably transfected with a DNA construct expressing the R132H mutant enzyme.
Cells are plated in poly-D-lys coated 96 well plates (12,000 cells/well) 18-24 hours previous to treatment with compounds. Four hours prior to compound treatment, cells are glutamine-starved by removing normal media and replacing with glutamine-free media. Following starvation, cells are then treated with different concentrations of test compounds (20 μM to 1 nM) dissolved in glutamine free media containing DMSO at a final concentration of 0.2%. The initial compound incubation is for 1 hour at 37° C./5% CO2. After 1 hour, glutamine is added to a final 2 mM concentration and the treated cells are then incubated for a further 18 hours at 37° C./5% CO2. Intracellular 2HG is analyzed in cell lysates obtained after media removal and treatment with lysis buffer (25 mM Tris-HCl pH 7.5, 150 mM NaCl, 1 mM EDTA, 1 mM EGTA/1% Triton-X 100). Cell lysates are conserved at −80° C. until processing. For analyte extraction, an aliquot of thawed lysate is transferred to a deep 96-well plate and treated with cold MeOH containing d5-3HG as an internal standard followed by chloroform and H2O (1:4:3:2). The upper phase is collected after separation and injected in HPLC to separate 2HG (and internal standard) using hydrophilic interaction (HILIC) chromatography coupled to MS/MS detection in a 6460 triple quadrupole mass spectrometer. Percent inhibition for each individual sample is obtained after normalizing calculated 2HG concentration to maximum and minimum references obtained in the presence and in the absence of glutamine during cell treatment with compounds. IC50 values are obtained from individual % inhibition using a sigmoidal dose-response 4-parameter equation. These calculations are carried out automatically using Activity Base (IDBS) or Screener (Genedata) data analysis programs.

Compound	IC50 (IDH2/R140Q) [nM]	IC50 ([1]; 19 h) [nM]	IC50 [1] [nM]
C=CC(=O)N1CC(COc2ccc([C@H](C)Nc3ncc4c(n3)N(CC)C(=O)OC4)cc2)C1 [Example 17, 1-Ethyl-7-[[(1S)-1-[4-[(1-prop-2-enoylazetidin-3-yl)methoxy]phenyl]ethyl]amino]-4H-pyrimido[4,5-d][1,3]oxazin-2-one]	48700	6.75 ± 1.13	
C=CC(=O)N1CCN(Cc2ccc([C@H](C)Nc3ncc4c(n3)N(C)C(=O)OC4)cc2)CC1 [Example 19, 1-Methyl-7-[[(1S)-1-[4-[(4-prop-2-enoylpiperazin-1-yl)methyl]phenyl]ethyl]amino]-4H-pyrimido[4,5-d][1,3]oxazin-2-one]	> 100000		44.9 ± 22.4
C=CC(=O)N1CCN(Cc2ccc([C@H](C)Nc3ncc4c(n3)N(CC(F)F)C(=O)OC4)cc2)CC1 [Example 20, 1-(2,2-difluoroethyl)-7-[[(1S)-1-[4-[(4-prop-2-enoylpiperazin-1-yl)methyl]phenyl]ethyl]amino]-4H-pyrimido[4,5-d][1,3]oxazin-2-one]	83500 ± 17400	31.9 ± 11.7	
C=CC(=O)N1CCN(Cc2ccc([C@H](C)Nc3ncc4c(n3)N(CCF)C(=O)OC4)cc2)CC1 [Example 21, 1-(2-fluoroethyl)-7-[[(1S)-1-[4-[(4-prop-2-enoylpiperazin-1-yl)methyl]phenyl]ethyl]amino]-4H-pyrimido[4,5-d][1,3]oxazin-2-one]	> 100000	24.6 ± 15.9	
